The results in this text go back to article PMC7504215, “Copper(II) Complexes with Mixed Heterocycle Ligands as Promising Antibacterial and Antitumor Species” (Molecules, 2020).

Data set [1] concerns E. coli 25922. The data set is described as follows: MBEC assay, micro-titer method (biofilm). It counts as cell-based, Escherichia coli. As to the method: (§1) The antibacterial assays were performed on Gram-negative (Escherichia coli ATCC 25922, E. coli 5, Pseudomonas aeruginosa ATCC 27853, P. aeruginosa ATCC 9027) and Gram-positive (Staphylococcus aureus ATCC 25923, S. aureus ATCC 6538, MRSA (Meticillin-resistant S. aureus) 388, ATCC, American Type Culture Collection) bacterial strains. Microbial suspensions (1.5 × 10^8 CFU/mL; colony forming units (CFU)) corresponding to 0.5 McFarland density obtained from 15 to 18-h bacterial cultures developed on solid media were used. The antimicrobial activity was tested on Mueller–Hinton agar medium.
(§2) The assessment of the complexes’ influence on the microbial ability to colonize an inert substratum with the establishment of the minimal biofilm eradication concentration (MBEC) was performed by the micro-titer method, following previously described protocols. The absorbance at 490 nm was measured with an Apollo LB 911ELISA (Berthold Technologies GmbH & Co. KG, Waltham, MA, USA) reader. All experiments were performed in triplicates.

Data set [2] concerns E. coli 5 ESBL. The data set is described as follows: MBEC assay, micro-titer method (biofilm). It is filed as cell-based, Escherichia coli. As to the method: as §1, §2
Data set [3] deals with S. aureus 25923. The data set is described as follows: MBEC assay, micro-titer method (biofilm). It counts as cell-based, Staphylococcus aureus.
The subject of data set [4] is BJ cells. Description: Phalloidin staining and cell imaging (cytoskeleton, nucleus). It is filed as cell-based, Human. To be noted: 24 h, 6 μg/mL. The protocol:
Cytoskeleton actin filaments of BJ and B16 cells were stained with phalloidin-FITC (Sigma-Aldrich, USA) according to the manufacturer’s protocol. Briefly, cells were washed with PBS (5 min, 3 times), fixed for 5 min with 3% paraformaldehyde, washed three times with PBS, permeabilized with 0.1% Triton X-100 in PBS for 15 min, washed three times with PBS, stained with 20 μg mL^−1 phalloidin-FITC at room temperature for 1 h and washed again three times with PBS. Cell nucleus was stained with 8 μM of Hoechst 33342 solution for 10 min, washed three times with PBS and finally, mounted and sealed on glass slides with FluorSave™ Reagent (Merck Millipore, Germany). The fluorescence images were acquired using an Andor DSD2 Confocal Unit (Andor, Ireland), mounted on an epifluorescence microscope, Olympus BX-51 (Olympus, Germany), equipped with a 40x and 100x objective and an appropriate DAPI/Hoechst filter cube (excitation filter 390/40 m, dichroic mirror 405 nm and emission filter 452/45 nm) and GFP/FITC filter cube (excitation filter 466/40 nm, dichroic mirror 488 nm and emission filter 525/54 nm).

Consider `Cc1cc(-c2ccccc2)nc2ncnn12.[Cu+2].[O-][Cl+3]([O-])([O-])[O-].[O-][Cl+3]([O-])([O-])[O-].c1cnc2c(c1)ccc1cccnc12.c1cnc2c(c1)ccc1cccnc12` [(2), [Cu(phen)2(pmtp)](ClO4)2], for which the results for the MBEC value in data set [1], in data set [2] and in data set [3] were 0.02 mM, 0.05 mM and 0.01 mM, respectively. Moreover, the “Cell morphology (cytoskeleton and nucleus)” value in data set [4] is on record as “affects the cell morphology”.
On to `Cc1cc(-c2ccccc2)nc2ncnn12.[Cu+2].[O-][Cl+3]([O-])([O-])[O-].[O-][Cl+3]([O-])([O-])[O-].c1ccc(-c2ccccn2)nc1.c1ccc(-c2ccccn2)nc1` [(1), [Cu(bpy)2(pmtp)](ClO4)2], for which the MBEC value in data set [1] and in data set [2] was 0.40 mM each time. In addition, the “Cell morphology (cytoskeleton and nucleus)” value in data set [4] was “does not alter its morphology”.
